Test results from article PMC8062632, “Structural studies of phosphorylation-dependent interactions between the V2R receptor and arrestin-2” (Nature Communications, 2021).

Target: arrestin2
Experiment: Cou-facilitated FRET assay for dissociation constant determination
Assay type: binding, bovine
Conditions: for Kd: 1 μM arrestin2 L293Cou with 1 μM Fab30, rising phosphopeptide concentrations, 25 °C, excitation 280 nm, ratio F450/F330; for reduction of affinity for arrestin2 compared with V2Rpp-FP: from FRET Kd values
Experimental: Steady state fluorescence was measured by a Varioskan flash (Thermo Scientific) instrument at 25 °C. […] Fluorescence intensity analysis of normalized ratio F450/F330 was calculated from relative fluorescence intensity at 450 and 330 nm. The dissociation constant was determined by fitting to the nonlinear regression equation y = Bmax [X] / (Kd + [X]) + NS[X] + Background as ours previously reported. […]
different phospho-peptide binding. a). Schematic flowchart of FRET assay for dissociation constant determination of arrestin-phospho-peptide interaction.
The synthetic fluorescent amino acid L-(7-hydroxycoumarin-4-yl) ethylglycine (Cou) was genetically incorporated into arrestin2 and served as a fluorescent acceptor for the emission light at 330 nm, and tryptophan served as the donor, which was excited at 280 nm. Cou produced its characteristic emission light at 450 nm. b). Analysis of the titration experiments monitored by FRET assay. The dissociation constant was determined by fitting to the nonlinear regression equation y = Bmax[X]/(Kd + [X]) + NS[X]+Background as previously described4. […]

Row | Kd [µM] | SMILES | reduction of affinity for arrestin2 compared with V2Rpp-FP
1 | 5.1 ± 0.7 | CC(C)C[C@H](NC(=O)[C@H](COP(=O)(O)O)NC(=O)[C@@H]1CCCN1C(=O)[C@@H]1CCCN1C(=O)[C@@H](NC(=O)[C@H](CCCNC(=N)N)NC(=O)CNC(=O)[C@H](CCCNC(=N)N)NC(=O)[C@H](C)N)[C@@H](C)OP(=O)(O)O)C(=O)NCC(=O)N1CCC[C@H]1C(=O)N[C@@H](CCC(N)=O)C(=O)N[C@@H](CC(=O)O)C(=O)N[C@@H](CCC(=O)O)C(=O)N[C@@H](COP(=O)(O)O)C(=O)N[C@@H](CS)C(=O)N[C@H](C(=O)N[C@H](C(=O)N[C@@H](C)C(=O)N[C@@H](COP(=O)(O)O)C(=O)N[C@@H](COP(=O)(O)O)C(=O)N[C@@H](COP(=O)(O)O)C(=O)N[C@@H](CC(C)C)C(=O)N[C@@H](C)C(=O)N[C@@H](CCCCN)C(=O)N[C@@H](CC(=O)O)C(=O)N[C@H](C(=O)N[C@@H](CO)C(=O)N[C@@H](CO)C(=O)O)[C@@H](C)O)[C@@H](C)O)[C@@H](C)OP(=O)(O)O [V2Rpp-4] | ~5 fold
2 | 3.3 ± 0.6 | CC(C)C[C@H](NC(=O)[C@H](COP(=O)(O)O)NC(=O)[C@@H]1CCCN1C(=O)[C@@H]1CCCN1C(=O)[C@@H](NC(=O)[C@H](CCCNC(=N)N)NC(=O)CNC(=O)[C@H](CCCNC(=N)N)NC(=O)[C@H](C)N)[C@@H](C)O)C(=O)NCC(=O)N1CCC[C@H]1C(=O)N[C@@H](CCC(N)=O)C(=O)N[C@@H](CC(=O)O)C(=O)N[C@@H](CCC(=O)O)C(=O)N[C@@H](COP(=O)(O)O)C(=O)N[C@@H](CS)C(=O)N[C@H](C(=O)N[C@H](C(=O)N[C@@H](C)C(=O)N[C@@H](COP(=O)(O)O)C(=O)N[C@@H](COP(=O)(O)O)C(=O)N[C@@H](COP(=O)(O)O)C(=O)N[C@@H](CC(C)C)C(=O)N[C@@H](C)C(=O)N[C@@H](CCCCN)C(=O)N[C@@H](CC(=O)O)C(=O)N[C@H](C(=O)N[C@@H](CO)C(=O)N[C@@H](CO)C(=O)O)[C@@H](C)O)[C@@H](C)OP(=O)(O)O)[C@@H](C)OP(=O)(O)O [V2Rpp-1] | approximately 3 fold
3 | 3 ± 0.4 | CC(C)C[C@H](NC(=O)[C@H](COP(=O)(O)O)NC(=O)[C@@H]1CCCN1C(=O)[C@@H]1CCCN1C(=O)[C@@H](NC(=O)[C@H](CCCNC(=N)N)NC(=O)CNC(=O)[C@H](CCCNC(=N)N)NC(=O)[C@H](C)N)[C@@H](C)OP(=O)(O)O)C(=O)NCC(=O)N1CCC[C@H]1C(=O)N[C@@H](CCC(N)=O)C(=O)N[C@@H](CC(=O)O)C(=O)N[C@@H](CCC(=O)O)C(=O)N[C@@H](CO)C(=O)N[C@@H](CS)C(=O)N[C@H](C(=O)N[C@H](C(=O)N[C@@H](C)C(=O)N[C@@H](COP(=O)(O)O)C(=O)N[C@@H](COP(=O)(O)O)C(=O)N[C@@H](COP(=O)(O)O)C(=O)N[C@@H](CC(C)C)C(=O)N[C@@H](C)C(=O)N[C@@H](CCCCN)C(=O)N[C@@H](CC(=O)O)C(=O)N[C@H](C(=O)N[C@@H](CO)C(=O)N[C@@H](CO)C(=O)O)[C@@H](C)O)[C@@H](C)OP(=O)(O)O)[C@@H](C)OP(=O)(O)O [V2Rpp-3] | approximately 3 fold
